Reference: PubChem BioAssay (NCI)
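Test compounds were applied to cells in 96-well plates for 48 hours at 5 doses. GI50: concentration for 50% inhibition of growth. TGI: concentration producing complete growth inhibition.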

Experiments:
Experiment in all cases: growth of human tumour cells (NCI), 48 h
[1] = tested on: OVCAR-3 ovarian
[2] = tested on: ACHN renal
[3] = tested on: SW-620 colon
[4] = tested on: OVCAR-8 ovarian
[5] = tested on: HS 578T breast
[6] = tested on: DU-145 prostate
[7] = tested on: PC-3 prostate
[8] = tested on: SNB-75 CNS
[9] = tested on: K-562 leukemia
[10] = tested on: TK-10 renal
[11] = tested on: RPMI-8226 leukemia
[12] = tested on: HL-60(TB) leukemia
[13] = tested on: SF-268 CNS
[14] = tested on: NCI-H23 lung
[15] = tested on: HOP-92 NSCLC
[16] = tested on: NCI-H522 lung
[17] = tested on: A498 renal
[18] = tested on: CAKI-1 renal
[19] = tested on: CCRF-CEM leukemia
[20] = tested on: SK-OV-3 ovarian
[21] = tested on: NCI/ADR-RES ovarian
[22] = tested on: UACC-62 melanoma
[23] = tested on: SK-MEL-28 melanoma
[24] = tested on: KM12 colon
[25] = tested on: UO-31 renal
[26] = tested on: RXF 393 renal
[27] = tested on: SF-539 CNS

For `NC(N)=Nc1ccc(Oc2cccc(Nc3ccc(Cl)cc3)c2)cn1`, the GI50 [1] was 1800 nM, the TGI [1] was 3630 nM and the GI50 [2] was 1730 nM. For the same compound, the TGI [2] was 3130 nM, the GI50 [3] was 1830 nM and the TGI [3] was 3550 nM. The GI50 [4] was 1970 nM, the TGI [4] was 4460 nM and the GI50 [5] was 1990 nM. The TGI [5] was 4520 nM, the GI50 [6] was 1760 nM and the TGI [6] was 3270 nM. The GI50 [7] was 1460 nM, the TGI [7] was 2840 nM and the GI50 [8] was 1270 nM. It also gave a TGI [8] of 2570 nM, a GI50 [9] of 2660 nM and a TGI [9] of 8210 nM. For the same compound, the GI50 [10] was 1690 nM, the TGI [10] was 3300 nM and the GI50 [11] was 2020 nM. For the same compound, the TGI [11] was 5080 nM, the GI50 [12] was 2520 nM and the TGI [12] was 4750 nM. The GI50 [13] was 1720 nM, the TGI [13] was 3750 nM and the GI50 [14] was 1660 nM. For the same compound, the TGI [14] was 3240 nM, the GI50 [15] was 1070 nM and the TGI [15] was 2390 nM. The GI50 [16] was 1530 nM, the TGI [16] was 3130 nM and the GI50 [17] was 1170 nM. For the same compound, the TGI [17] was 2660 nM, the GI50 [18] was 1640 nM and the TGI [18] was 3170 nM. It also gave a GI50 [19] of 2040 nM, a TGI [19] of 5270 nM and a GI50 [20] of 2110 nM. For the same compound, the TGI [20] was 4160 nM, the GI50 [21] was 4050 nM and the TGI [21] was 20500 nM. It also gave a GI50 [22] of 1740 nM, a TGI [22] of 3280 nM and a GI50 [23] of 1670 nM. It also gave a TGI [23] of 3120 nM, a GI50 [24] of 2080 nM and a TGI [24] of 4580 nM. The GI50 [25] was 1710 nM, the TGI [25] was 3280 nM and the GI50 [26] was 1780 nM. It also gave a TGI [26] of 3370 nM, a GI50 [27] of 1650 nM and a TGI [27] of 3130 nM.
